Experimental findings from patent publication US11964953B2, “Substituted aminothiazoles as DGKzeta inhibitors for immune activation” (Bayer Aktiengesellschaft, priority 2020, dated 2024) are described below.

Where only a bound is given, the exact number is not on record here.

The target in this experiment is human DGKζ (Homo sapiens (Human), UniProt Q13574). Put plainly: Human DGKζ kinase activity inhibition assay (ADP-Glo). The class given is biochemical. The settings on record: in vitro human DGKζ kinase activity inhibition assay; read-out: IC50. A digest of the protocol: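 ADP-Glo luminescence, reflecting ADP produced, served as the readout of activity. Full-length human DGKζ, FLAG-tagged at the C-terminus and insect-cell expressed, was used; lipid substrate mix was sonicated with octyl-β-D-glucopyranoside in 50 mM MOPS pH 7.4.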
Sequence of human DGKζ (Q13574 other isoform, or with tags, fused parts or gaps): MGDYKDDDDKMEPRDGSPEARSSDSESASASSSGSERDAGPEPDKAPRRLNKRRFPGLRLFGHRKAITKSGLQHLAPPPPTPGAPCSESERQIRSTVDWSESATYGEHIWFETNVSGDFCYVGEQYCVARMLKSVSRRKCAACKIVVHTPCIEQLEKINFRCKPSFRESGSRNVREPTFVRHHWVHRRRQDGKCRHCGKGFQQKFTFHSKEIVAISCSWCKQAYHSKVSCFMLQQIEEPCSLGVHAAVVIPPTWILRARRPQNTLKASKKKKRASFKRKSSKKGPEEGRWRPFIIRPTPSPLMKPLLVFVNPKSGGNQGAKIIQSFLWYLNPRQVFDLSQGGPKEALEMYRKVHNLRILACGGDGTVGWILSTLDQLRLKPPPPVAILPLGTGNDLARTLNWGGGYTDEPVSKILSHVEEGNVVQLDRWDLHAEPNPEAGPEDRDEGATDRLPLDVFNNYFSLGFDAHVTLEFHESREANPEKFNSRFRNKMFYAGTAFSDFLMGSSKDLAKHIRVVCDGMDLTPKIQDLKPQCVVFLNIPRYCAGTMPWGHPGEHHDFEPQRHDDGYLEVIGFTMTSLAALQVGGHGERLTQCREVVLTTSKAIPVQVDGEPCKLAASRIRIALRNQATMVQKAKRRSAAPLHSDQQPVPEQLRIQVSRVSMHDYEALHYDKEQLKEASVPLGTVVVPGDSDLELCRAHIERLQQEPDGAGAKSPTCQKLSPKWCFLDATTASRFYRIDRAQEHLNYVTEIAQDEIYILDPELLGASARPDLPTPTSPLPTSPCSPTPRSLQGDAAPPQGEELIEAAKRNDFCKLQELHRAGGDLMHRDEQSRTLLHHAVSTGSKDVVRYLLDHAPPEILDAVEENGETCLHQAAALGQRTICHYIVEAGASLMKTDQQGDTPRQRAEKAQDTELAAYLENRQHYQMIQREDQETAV
(In ADP-Glo the light output rises with the ADP produced.)
As to `CC(C(N)=O)N(c1ccc(F)cc1)c1nc(N)c(C(=O)c2ccc(OC(F)F)cc2)s1` (single isomer, unassigned) [Example 44.2, 2-(N-[4-amino-5-[4-(difluoromethoxy)benzoyl]thiazol-2-yl]-4-fluoro-anilino)propanamide], the concentration for half-maximal inhibition (IC50) was 6.72 nM.

For the molecule `CC(C(N)=O)N(c1ccc(F)cc1)c1nc(N)c(C(=O)c2ccc(N(C)C)cc2)s1` (racemic) [Example 180, rac-2-(N-[4-amino-5-[4-(dimethylamino)benzoyl]thiazol-2-yl]-4-fluoro-anilino)propanamide], the IC50 was 62 nM.

Take `CC(C(N)=O)N(c1ccc(F)cc1)c1nc(N)c(C(=O)c2ccc(OCC(=O)NCC(C)(C)C)cc2)s1` (racemic) [Example 141, rac-2-(N-[4-amino-5-[4-[2-(2,2-dimethylpropylamino)-2-oxo-ethoxy]benzoyl]thiazol-2-yl]-4-fluoro-anilino)propanamide]: the IC50 stood at 389 nM. Then `COCCNC(=O)c1ccc(C(=O)c2sc(N(c3ccc(F)cc3)C(C)C(N)=O)nc2N)cc1` (racemic) [Example 264, rac-4-[4-amino-2-(N-(2-amino-1-methyl-2-oxo-ethyl)-4-fluoro-anilino)thiazole-5-carbonyl]-N-(2-methoxyethyl)benzamide], with 376 nM; and `CC1CCN(C(=O)COc2ccc(C(=O)c3sc(N(c4ccc(F)cc4)C(C)C(N)=O)nc3N)cc2)CC1` (racemic) [Example 129, rac-2-(N-[4-amino-5-(4-[2-(4-methyl-1-piperidyl)-2-oxo-ethoxy]benzoyl]thiazol-2-yl]-4-fluoro-anilino)propanamide], with 97.1 nM; and `CC(C(N)=O)N(c1ccc(F)cc1)c1nc(N)c(C(=O)c2ccc(C(=O)NC3CCCCC3)cc2)s1` (racemic) [Example 260, rac-4-[4-amino-2-(N-(2-amino-1-methyl-2-oxo-ethyl)-4-fluoro-anilino)thiazole-5-carbonyl]-N-cyclohexyl-benzamide], with 29 nM. The result for `CC(C(N)=O)N(c1ccc(Cl)cc1)c1nc(N)c(C(=O)c2ccncc2)s1` (single isomer, unassigned) [Example 57.2, 2-(N-[4-amino-5-(pyridine-4-carbonyl)thiazol-2-yl]-4-chloro-anilino)propanamide] reads 14600 nM. `CC(Oc1ccc(C(=O)c2sc(N(c3ccccc3)C(C)C(N)=O)nc2N)cc1)C(N)=O` (racemic) [Example 45, 2-(N-[4-amino-5-[4-[2-amino-1-methyl-2-oxo-ethoxy]benzoyl]thiazol-2-yl]anilino)propanamide]: the IC50 was found to be 338 nM. Then `CC(C(N)=O)N(c1ccc(F)cc1)c1nc(N)c(C(=O)c2ccc(C#N)c(F)c2)s1` (racemic) [Example 21, rac-2-(N-[4-amino-5-(4-cyano-3-fluoro-benzoyl)thiazol-2-yl]-4-fluoro-anilino)propanamide], with 142 nM; and `CC(C(N)=O)N(c1nc(N)c(C(=O)c2ccccc2)s1)c1ccc(F)cc1Cl` (racemic) [Example 11, rac-2-(N-(4-amino-5-benzoyl-thiazol-2-yl)-2-chloro-4-fluoro-anilino)propanamide], with 406 nM.

`CC(C(N)=O)N(c1ccc(F)cc1)c1nc(N)c(C(=O)c2ccc(Cl)c(C(F)(F)F)c2)s1` (racemic) [Example 10, rac-2-(N-[4-amino-5-[4-chloro-3-(trifluoromethyl)benzoyl]thiazol-2-yl]-4-fluoro-anilino)propanamide]: the half-maximal inhibitory concentration (IC50) is 425 nM.

For the molecule `Cc1cc(C(=O)c2sc(N(c3ccc(F)cc3)C(C)C(N)=O)nc2N)ccn1` (single isomer, unassigned) [Example 187.2, 2-(N-[4-amino-5-(2-methylpyridine-4-carbonyl)thiazol-2-yl]-4-fluoro-anilino)propanamide], the IC50 was more than 20000 nM. The result for `CC(C(N)=O)N(c1ccc(O)cc1)c1nc(N)c(C(=O)c2ccc(OC(F)F)cc2)s1` (single isomer, unassigned) [Example 291, 2-(N-[4-amino-5-[4-(difluoromethoxy)benzoyl]thiazol-2-yl]-4-hydroxy-anilino)propanamide (single enantiomer)] reads 178 nM; that for `Cc1ccccc1CNC(=O)COc1ccc(C(=O)c2sc(N(c3ccc(F)cc3)C(C)C(N)=O)nc2N)cc1` (racemic) [Example 84, rac-2-(N-[4-amino-5-[4-[2-(o-tolylmethylamino)-2-oxo-ethoxy]benzoyl]thiazol-2-yl]-4-fluoro-anilino)propanamide], 24.6 nM. Then `CC(C(N)=O)N(c1ccc(F)cc1)c1nc(N)c(C(=O)c2ccc(OCC(=O)N3CCCCCC3)cc2)s1` (racemic) [Example 123, rac-2-(N-[4-amino-5-[4-[2-(azepan-1-yl)-2-oxo-ethoxy]benzoyl]thiazol-2-yl]-4-fluoro-anilino)propanamide], with 100 nM; and `CC(C(N)=O)N(c1ccc(F)cc1)c1nc(N)c(C(=O)c2ccc(OCC(=O)N3CCC(Cc4ccccc4)CC3)cc2)s1` (racemic) [Example 90, rac-2-(N-[4-amino-5-[4-[2-(4-benzyl-1-piperidyl)-2-oxo-ethoxy]benzoyl]thiazol-2-yl]-4-fluoro-anilino)propanamide], with 63.3 nM. The result for `CC(C(N)=O)N(c1ccc(F)cc1)c1nc(N)c(C(=O)c2ccc(OCC(=O)Nc3ccc(C(N)=O)cc3)cc2)s1` (racemic) [Example 109, rac-4-[[2-[4-[4-amino-2-(N-[2-amino-1-methyl-2-oxo-ethyl]-4-fluoro-anilino)thiazole-5-carbonyl]phenoxy]acetyl]amino]benzamide] reads 51.7 nM. With `CC(C)NC(=O)COc1ccc(C(=O)c2sc(N(c3ccc(F)cc3)C(C)C(N)=O)nc2N)cc1` (racemic) [Example 82, rac-2-(N-[4-amino-5-[4-[2-(isopropylamino)-2-oxo-ethoxy]benzoyl]thiazol-2-yl]-4-fluoro-anilino)propanamide], the IC50 was found to be 89.6 nM. In the case of `CNC(=O)c1ccc(C(=O)c2sc(N(c3ccc(F)cc3)C(C)C(N)=O)nc2N)cc1` (racemic) [Example 15, rac-4-[4-amino-2-(N-[2-amino-1-methyl-2-oxo-ethyl]-4-fluoro-anilino)thiazole-5-carbonyl]-N-methyl-benzamide], the IC50 amounted to 266 nM. For `COc1ccc(C(=O)c2sc(N(c3ccc(F)cc3)C(C)C(N)=O)nc2N)cn1` (racemic) [Example 14, rac-2-(N-[4-amino-5-(6-methoxypyridine-3-carbonyl)thiazol-2-yl]-4-fluoro-anilino)propanamide], the IC50 stood at 334 nM.

`CC(C(N)=O)N(c1ccc(F)cc1)c1nc(N)c(C(=O)c2ccc(OC(F)F)cc2)s1` (racemic) [Example 44, rac-2-(N-[4-amino-5-[4-(difluoromethoxy)benzoyl]thiazol-2-yl]-4-fluoro-anilino)propanamide]: the IC50 worked out at 8.83 nM. Then `CC(C(N)=O)N(c1ccc2c(c1)OC(F)(F)O2)c1nc(N)c(C(=O)c2ccc(OC(F)F)nc2)s1` (racemic) [Example 216, rac-2-[[4-amino-5-[6-(difluoromethoxy)pyridine-3-carbonyl]thiazol-2-yl]-(2,2-difluoro-1,3-benzodioxol-5-yl)amino]propanamide], with 32 nM.

Broadly, the IC50 is the concentration that gives 50% inhibition.
